# Data: patent US10945932B2, “Prebiotic oral care compositions containing carboxylic acids” (COLGATE-PALMOLIVE COMPANY, priority 2013, dated 2021)
# How the values were obtained:
# Assay type in all cases: cell-based
# Actinomyces naeslundii = test: Metabolic activity, Biolog phenotype microarray; conditions: A naeslundii
# Protocol: (§1) The extent of metabolic activity of the tested bacteria in the presence of the above-mentioned acids after 24 hours and 48 hours was investigated through a high throughput phenotype microarray system (PM) for microbial cells (Biolog Inc.). Each PM can contain up to 95 different biochemical compounds (e.g. organic acids) that may act as substrates for bacteria as well as one negative control, not containing the substrates. Microarray plates were used in which the different wells of each plate were pre-loaded (by the manufacturer, Biolog Inc.) with different organic acids to be tested. Each bacterial species was tested using a separate microarray plate. Thus, a single bacterial species was tested with a variety of organic acids on each particular plate. The microarrays are based on redox technology, using cell respiration as a universal reporter. […] The observation of this color change indicates which of the substrates improve the metabolic activity and health of the cells.
# (§2) Each bacterial species was collected from blood agar plates (incubated for 48 hours anaerobically at 37° C.) and transferred to an IF-0 Base inoculation fluid (Biolog Inc.), which is a nutritionally poor medium. […] A 1:5 dilution of this suspension was prepared by mixing 3 mL of the 42% transmittance cell suspension with 15 mL of an inoculation fluid (which inoculation fluid was formed by mixing 11.6 mL sterile water, 62.5 mL IF-0 base inoculation fluid and 0.9 mL of the tetrazolium dye “Biolog Redox Dye mix D”), resulting in a final cell density which was equal to 85% transmittance using a BioRad SmartSpec 3000 Photometer. For each of the acids tested, the microarray plate (obtained from the supplier (Biolog Inc.) with acid already present in the relevant wells in powder form) was directly inoculated with 100 μL/well of this 85% transmittance cell suspension.
# (§3) All plates were incubated in an anaerobic atmosphere at 37° C. Color changes were measured spectrophotometrically at 492 nm (Thermo Scientific Multiskan Ascent) at 24 hrs and 48 hrs using the same plate at both time points.
# (§4) The controls were also carried out three times, as above.
# Actinomyces viscosus = test: Metabolic activity, Biolog phenotype microarray; conditions: A viscosus
# Protocol: as §1, §2, §3, §4
# [1] = system: Aggregatibacter actinomycetemcomitans; test: Metabolic activity, Biolog phenotype microarray; conditions: A actinomycetemcomitans
# Protocol: as §1, §2, §3, §4
# Capnocytophaga sputigena = test: Metabolic activity, Biolog phenotype microarray; conditions: C sputigena
# Protocol: as §1, §2, §3, §4
# Fusobacterium nucleatum = test: Metabolic activity, Biolog phenotype microarray; conditions: F nucleatum
# Protocol: as §1, §2, §3, §4
# Porphyromonas gingivalis = test: Metabolic activity, Biolog phenotype microarray; conditions: P gingivalis
# Protocol: as §1, §2, §3, §4
# Prevotella intermedia = test: Metabolic activity, Biolog phenotype microarray; conditions: P intermedia
# Protocol: as §1, §2, §3, §4
# Streptococcus gordonii = test: Metabolic activity, Biolog phenotype microarray; conditions: S gordonii
# Protocol: as §1, §2, §3, §4
# Streptococcus mitis = test: Metabolic activity, Biolog phenotype microarray; conditions: S mitis
# Protocol: as §1, §2, §3, §4
# Streptococcus mutans = test: Metabolic activity, Biolog phenotype microarray; conditions: S mutans
# Protocol: as §1, §2, §3, §4
# Streptococcus salivarius = test: Metabolic activity, Biolog phenotype microarray; conditions: S salivarius
# Protocol: as §1, §2, §3, §4
# Streptococcus sanguinis = test: Metabolic activity, Biolog phenotype microarray; conditions: S sanguinis
# Protocol: as §1, §2, §3, §4
# Streptococcus sobrinus = test: Metabolic activity, Biolog phenotype microarray; conditions: S sobrinus
# Protocol: as §1, §2, §3, §4
# Tannerella forsythia = test: Metabolic activity, Biolog phenotype microarray; conditions: T forsythia
# Protocol: as §1, §2, §3, §4
# Veillonella parvula = test: Metabolic activity, Biolog phenotype microarray; conditions: V parvula
# Protocol: as §1, §2, §3, §4
# [2] = system: beneficial oral bacteria and pathogenic oral bacteria; test: Metabolic activity, prebiotic effect over the whole panel; conditions: 48 hrs; threshold value of 2
# Protocol: as §1, §2, §3, §4
smiles,measurement,setting,value
"O=C(O)[C@H](O)[C@@H](O)[C@H](O)[C@H](O)CO[C@H]1O[C@H](CO)[C@H](O)[C@H](O)[C@H]1O [Melibionic acid, melibionic acid]","metabolic activity, OD at 492 nm divided by OD of control (control = 1)",Actinomyces naeslundii; 24 hrs,1.2539
same,"metabolic activity, OD at 492 nm divided by OD of control (control = 1)",Actinomyces naeslundii; 48 hrs,1.3926
same,"metabolic activity, OD at 492 nm divided by OD of control (control = 1)",Actinomyces viscosus; 24 hrs,1.6342
same,"metabolic activity, OD at 492 nm divided by OD of control (control = 1)",Actinomyces viscosus; 48 hrs,2.0904
same,"metabolic activity, OD at 492 nm divided by OD of control (control = 1)",[1]; 24 hrs,0.9361
same,"metabolic activity, OD at 492 nm divided by OD of control (control = 1)",[1]; 48 hrs,0.8912
same,"metabolic activity, OD at 492 nm divided by OD of control (control = 1)",Capnocytophaga sputigena; 24 hrs,0.6213
same,"metabolic activity, OD at 492 nm divided by OD of control (control = 1)",Capnocytophaga sputigena; 48 hrs,0.9143
same,"metabolic activity, OD at 492 nm divided by OD of control (control = 1)",Fusobacterium nucleatum; 24 hrs,0.9131
same,"metabolic activity, OD at 492 nm divided by OD of control (control = 1)",Fusobacterium nucleatum; 48 hrs,0.8299
same,"metabolic activity, OD at 492 nm divided by OD of control (control = 1)",Porphyromonas gingivalis; 24 hrs,0.8689
same,"metabolic activity, OD at 492 nm divided by OD of control (control = 1)",Porphyromonas gingivalis; 48 hrs,0.9301
same,"metabolic activity, OD at 492 nm divided by OD of control (control = 1)",Prevotella intermedia; 24 hrs,1.0625
same,"metabolic activity, OD at 492 nm divided by OD of control (control = 1)",Prevotella intermedia; 48 hrs,1.0988
same,"metabolic activity, OD at 492 nm divided by OD of control (control = 1)",Streptococcus gordonii; 24 hrs,1.0326
same,"metabolic activity, OD at 492 nm divided by OD of control (control = 1)",Streptococcus gordonii; 48 hrs,0.9389
same,"metabolic activity, OD at 492 nm divided by OD of control (control = 1)",Streptococcus mitis; 24 hrs,1.0443
same,"metabolic activity, OD at 492 nm divided by OD of control (control = 1)",Streptococcus mitis; 48 hrs,0.9983
same,"metabolic activity, OD at 492 nm divided by OD of control (control = 1)",Streptococcus mutans; 24 hrs,1.1010
same,"metabolic activity, OD at 492 nm divided by OD of control (control = 1)",Streptococcus mutans; 48 hrs,1.0362
same,"metabolic activity, OD at 492 nm divided by OD of control (control = 1)",Streptococcus salivarius; 24 hrs,0.9984
same,"metabolic activity, OD at 492 nm divided by OD of control (control = 1)",Streptococcus salivarius; 48 hrs,0.9237
same,"metabolic activity, OD at 492 nm divided by OD of control (control = 1)",Streptococcus sanguinis; 24 hrs,1.0430
same,"metabolic activity, OD at 492 nm divided by OD of control (control = 1)",Streptococcus sanguinis; 48 hrs,1.0832
same,"metabolic activity, OD at 492 nm divided by OD of control (control = 1)",Streptococcus sobrinus; 24 hrs,1.1366
same,"metabolic activity, OD at 492 nm divided by OD of control (control = 1)",Streptococcus sobrinus; 48 hrs,1.1222
same,"metabolic activity, OD at 492 nm divided by OD of control (control = 1)",Tannerella forsythia; 24 hrs,1.0848
same,"metabolic activity, OD at 492 nm divided by OD of control (control = 1)",Tannerella forsythia; 48 hrs,1.1865
same,"metabolic activity, OD at 492 nm divided by OD of control (control = 1)",Veillonella parvula; 24 hrs,0.8685
same,"metabolic activity, OD at 492 nm divided by OD of control (control = 1)",Veillonella parvula; 48 hrs,0.6981
same,prebiotic effect (metabolic activity),[2],exhibited prebiotic effects
